US20090117177A1, “Echogenic microbubbles and microemulsions for ultrasound-enhanced nanoparticle-mediated delivery of agents” (priority 2005, published 2009)
Converted amounts (≈) assume the structure as drawn.

Key:
[1] = test system: HCT116 colon cancer tumors; assay: HCT116 biodistribution, DOX uptake by cells of organs by flow cytometry; assay type: in vivo, male nu/nu mice
Procedure: (§1) DOX-loaded micelles were injected either intravenously (i.v.) or intratumorally (i.t.) at a DOX dosage of 3 mg/kg (growth rate studies) or 6 mg/kg (biodistribution studies).
Biodistribution studies: DOX uptake by the cells of various organs was measured by flow cytometry. Mice were intratumorally injected with either free (i.e., PBS-dissolved) DOX or micelle-encapsulated DOX. Ten hours after injection of the composition, mice were sacrificed and tumors and various organs were excised and digested in trypsin.

[2] = test system: HCT116 colon cancer tumors; assay: HCT116 tumor growth rates; assay type: in vivo, male nu/nu mice; conditions: intravenous injection, DOX 3 mg/kg
Procedure: Tumors: HCT116 colon cancer tumors were inoculated subcutaneously to the right flanks of male nu/nu mice. (See, FIGS. 24 and 25). In contrast to A2780 tumors, this tumor is characterized as being poorly vascularized (See, FIG. 24).
as §1
Tumor growth rates: Animals were randomly assigned to experimental and control groups, comprising five animals each. Intravenous treatment was initiated when tumor volume reached 50-100 mm^3. Intratumoral treatment was initiated when tumor volume reached 150-300 mm^3. A total of four injections were delivered twice a week for two weeks. For intratumoral injections, four injections of 25 μl drug solution each were made into four sites of a tumor.

colon cancer HCT116 = assay: Sensitivity of HCT116 to DOX; assay type: cell-based, human
[3] = ten hours after intratumoral injection

COc1cccc2c1C(=O)c1c(O)c3c(c(O)c1C2=O)C[C@@](O)(C(=O)CO)C[C@@H]3O[C@H]1C[C@H](N)[C@H](O)[C@H](C)O1 [DOX, doxorubicin]
DOX internalization by tumor cells ([1]; ten hours after i.v. injection): did not deliver drug to tumor cells
DOX in spleen cells [1, 3]: slightly higher
DOX uptake by heart cells [1, 3]: significant uptake
tumor response [2]: high resistance to chemotherapy
IC50 (colon cancer HCT116): 1.5 µg/mL (≈ 2.76 µM)
